# Results: patent US20130078260A1, “COMPOUNDS TARGETING THE VEGF AND/OR HIF PATHWAY SUCH AS SORAFENIB OR VATALANIB FOR USE IN THE TREATMENT OF OTITIS MEDIA” (MEDICAL RESEARCH COUNCIL, priority 2010, published 2013)
# Where two headings read alike, the source gives them in different places. Marks after values point to notes of the source that are not given here.
# What was measured:
# [1] = system: Jbo/+ mice; test: Click-evoked Auditory Brain Stem response (ABR) change in drug-treated Junbo (Jbo/+) mice, chronic otitis media model; format: in vivo, mouse
# Procedure: (§1) Drug treatment, ABR and analysis of inflammation. […] The sham
# (§2) Jbo/+ group was matched for age, gender and pre-trial ABR (30-60 dB) and received vehicle alone. A click-evoked ABR (Zheng, Q. Y., et al. (1999) Hearing Res. 130, 94-107) was measured at the beginning and end of the trial (or after 3 wk in the 50 mg/kg PTK787 trial). For ABR with recovery, anesthesia was induced by i.p. injection with a mixture of 10 mg/kg xylazine and 100 mg/kg ketamine and was reversed by 5 mg/kg atipamezole hydrochloride. Histology was assessed at 4 wk in both PTK787 trials.
# (§3) Statistics. Student t-tests or Mann Whitney U tests (for ABR measurements where interval data was in 5 dB increments) were performed and test values p<0.05 were considered significant. Percentages were arcsine transformed before using t-tests. In the drug trials, 1-tailed tests were used compare drug and sham-treated groups, otherwise 2-tailed tests were used.
# [2] = system: WT mice; test: Click-evoked ABR change in drug-treated WT littermate mice; format: in vivo, mouse
# Procedure: as §1, §2, §3
# [3] = system: Jbo/+ mice middle ear mucosa; test: Histological analysis of inflammation in middle ear mucosa of drug-treated Jbo/+ mice; format: in vivo, mouse
# Procedure: as §1, §2
# Image capture and analysis. Digital images were captured on an Olympus BX51 microscope using ×20, ×40 or ×60 Plan Achromat objectives with neutral density filter, on a ColorView Soft Imaging System software using automatic exposures. In the drug trials, H&E stained sections for image analysis were scanned at ×400 magnification on a Nanozoomer digital pathology system (Hamamatsu Photonics). Eardrum thickness and the thickness of the mucosa along its medial surface (avoiding the cochlea and the region adjacent to the opening of the Eustachian tube) were averaged from 5 measurements. The number of capillaries and lymphatic vessels and their respective diameters were measured in a standardized 1000 μm length of medial mucosa. The treatment and genotype were blinded from the assessor when making the morphological measurements.
# as §3
# [4] = system: mice; details: mouse, in vivo, po
# From the text: as §1
# [5] = both 50 mg/kg and 75 mg/kg trials, 4 wk, vs sham
smiles,measurement,setting,value
CCN(CC)CCNC(=O)c1c(C)[nH]c(/C=C2\C(=O)Nc3ccc(F)cc32)c1C [SU-11248],Effect on hearing loss,"[1]; Junbo mice, 28 d treatment, vs sham (FIG. 6B)",moderates hearing loss
Clc1ccc(Nc2nnc(Cc3ccncc3)c3ccccc23)cc1 [PTK787/ZK 222584],ΔABR (dB) WT,"[2]; 50 mg/kg, 21 days, mean ± SEM (n)",−0.6 ± 1.1 (8) dB
same,ΔABR (dB) WT,"[2]; 75 mg/kg, 28 days, mean ± SEM (n)",0.0 ± 0.9 (8) dB
same,Mucosal thickening,"[3]; 50 mg/kg trial, 4 wk, vs sham",moderated mucosal thickening
same,Lymphatic vessel dilation,"[3]; 75 mg/kg dosage group, 4 wk, vs sham",moderated
same,Angiogenesis (blood vessel number in mucosa),[3]; [5],reduced
same,Lymphatic vessel number,[3]; [5],reduced
CNC(=O)c1cc(Oc2ccc(NC(=O)Nc3ccc(Cl)c(C(F)(F)F)c3)cc2)ccn1 [BAY 43-9006],ΔABR (dB) Jbo/+ drug,"[1]; Jbo/+ mice, 30 mg/kg, 15 days, oral gavage once a day, mean ± SEM (n)",0.9 ± 1.5 (11)^e dB
same,Effect on hearing loss,"[1]; Jbo/+ mice, treatment for 2 wk, vs sham control",reduced hearing loss
same,ΔABR (dB) WT,"[2]; 30 mg/kg, 15 days, mean ± SEM (n)",−2.0 ± 1.2 (5) dB
same,Tolerability / adverse signs,"[4]; Junbo (Jbo/+) mutant and WT, 2 wk",not as well tolerated as PTK787
same,Tolerability / adverse signs,[4],mice suddenly became piloerect
same,Lymphatic vessel dilation,"[3]; 2 wk trial, n=11, sham 14.2±0.9 μm, P=0.0072",9.9±1.0 μm
"CO[C@H]1/C=C\C=C(/C)C(=O)NC2=CC(=O)C(NCCN(C)C)=C(C[C@@H](C)C[C@H](OC)[C@H](O)[C@@H](C)/C=C(\C)[C@@H]1OC(N)=O)C2=O [17-DMAG, 17-dimethylaminoethylamino-17-demethoxy-geldanamycin]",Effect on hearing loss,"[1]; Jbo/+ mice, 10 mg/kg, 28 d treatment, vs sham (FIG. 6E)",moderated hearing loss
CN(CCOc1ccc(CC2SC(=O)NC2=O)cc1)c1ccccn1 (stereo not shown) [Rosiglitazone],ΔABR (dB) Jbo/+ drug,"[1]; Jbo/+ mice, 20 mg/kg, 28 days, mean, SEM (n) printed in the row below",9.7 dB
same,ΔABR (dB) WT,"[2]; 20 mg/kg, 28 days, mean, SEM (n) printed in the row below",1.4 dB
